“Also recorded” adds a separate entry of the source. Where two headings read alike, the source gives them in different places. Each block holds one molecule with its values, some of them ahead of it.
Columns and labels:
[1] = test system: primary neuronal cultures from cortex; test: NMDA neurotoxicity in cerebral cortical cultures (trypan blue, % cell death); assay type: cell-based, Sprague-Dawley rats; conditions: for protection against NMDA neurotoxicity (in words): 10 μM 1,5-dihydroxyisoquinoline, 1 mM novobiocin, Table 1A and summary statements
Procedure: To determine directly if PARS activation participates in NMDA neurotoxicity, we monitored neurotoxicity elicited by NMDA in cerebral cortical cultures in which NO synthase inhibitors provide marked protection (V. L. Dawson et al., Proc. Natl. Acad. Sci. U.S.A. 88, 6368 (1991); V. L. Dawson et al., J. Neurosci. 13, 2651 (1993)) (FIG. 2).
Table 1A, PARS inhibitors were applied 30 min before and during NMDA application. In Table 1B, PARS inhibitors were applied after NMDA administration at the indicated times for 20 to 24 hr. Data are the means ±SEM (n≥8). Each data point represents 4,000-12,000 neurons counted. *p≤0.001 Student's t-test.
(§1) Primary neuronal cultures from cortex were prepared from fetal Sprague-Dawley rats, gestation day 13-14. Mature neurons (grater than 21 days in culture) were used in all experiments.
(§2) Neurotoxicity was determined by exposing the neurons to the various test solutions as previously described (Dawson, supra). […], SNP or SNAP were applied to the cells for 5 min, then the cells were washed and replaced with MEM, 21 mM glucose overnight in the incubator. Twenty to 24 hr after exposure to test solutions, the neurons were exposed to 0.4% trypan blue in CSS to stain the residue of non-viable cells and to assess toxicity. Viable and non-viable cells were counted. At least two separate experiments utilizing four separate wells were performed for each data point shown. Significant overall values were obtained by using a one-way, between groups analysis of variance. Specific comparisons on all possible pair combinations were made with the Student's t-test for independent means.

[2] = test system: PARS; conditions: cited from earlier work; for relative potency as PARS inhibitor (in words): family of benzamide and its derivatives
[3] = test system: brain NOS; test: Nitrite formation in human kidney 293 cells stably transfected with brain NOS cDNA; assay type: cell-based; conditions: for nitrite formation: A23187 (10 μM), 2 hr, inhibitors 100 μM, n=3
Excerpt: (§3) To ascertain whether NO itself elicits neurotoxicity by activation of PARS, we administered the NO releasers SNP and S-nitroso-N-acetylpenicillamine (SNAP). […] In human kidney 293 cells stably transfected with the cDNA of brain.

[4] = target: PARS (poly(ADP-ribose) synthetase) (Rattus norvegicus, UniProt P27008); test: PARS activity in rat brain nuclear extracts; assay type: biochemical; conditions: for activity at 20 µM: read-out: PARS activity, % of basal levels
Sequence of PARS (poly(ADP-ribose) synthetase) (P27008 whole entry): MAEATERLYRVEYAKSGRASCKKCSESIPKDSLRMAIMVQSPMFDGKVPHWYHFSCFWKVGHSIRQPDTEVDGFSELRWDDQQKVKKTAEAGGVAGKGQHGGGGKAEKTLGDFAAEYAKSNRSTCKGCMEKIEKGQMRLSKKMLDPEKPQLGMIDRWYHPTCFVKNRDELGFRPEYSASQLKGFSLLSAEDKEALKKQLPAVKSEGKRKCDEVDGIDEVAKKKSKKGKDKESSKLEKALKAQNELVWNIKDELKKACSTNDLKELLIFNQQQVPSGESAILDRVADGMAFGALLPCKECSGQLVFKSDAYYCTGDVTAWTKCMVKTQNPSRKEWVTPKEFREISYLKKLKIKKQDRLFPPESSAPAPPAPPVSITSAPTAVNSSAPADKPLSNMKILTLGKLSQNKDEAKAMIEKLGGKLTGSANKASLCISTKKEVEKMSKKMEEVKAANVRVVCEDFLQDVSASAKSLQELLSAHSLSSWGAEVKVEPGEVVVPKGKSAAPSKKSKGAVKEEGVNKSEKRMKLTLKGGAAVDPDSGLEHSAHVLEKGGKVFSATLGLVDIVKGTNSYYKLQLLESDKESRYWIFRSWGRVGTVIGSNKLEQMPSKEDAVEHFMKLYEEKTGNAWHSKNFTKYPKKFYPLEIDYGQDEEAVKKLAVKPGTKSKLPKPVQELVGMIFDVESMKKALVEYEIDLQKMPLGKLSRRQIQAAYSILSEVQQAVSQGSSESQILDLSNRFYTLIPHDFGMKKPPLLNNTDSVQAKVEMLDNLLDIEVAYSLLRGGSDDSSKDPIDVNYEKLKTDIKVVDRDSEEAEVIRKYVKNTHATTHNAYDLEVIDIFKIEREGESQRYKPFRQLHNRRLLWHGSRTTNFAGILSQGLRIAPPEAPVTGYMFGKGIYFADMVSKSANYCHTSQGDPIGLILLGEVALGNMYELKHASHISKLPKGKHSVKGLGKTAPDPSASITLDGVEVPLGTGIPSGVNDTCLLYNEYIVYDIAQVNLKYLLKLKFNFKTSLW
Excerpt: Inhibitors of poly(ADP-ribose) synthetase are compounds which compete for the substrate binding site of poly(ADP-ribose) synthetase or other sites on the enzyme, and include both reversible and irreversible inhibitors. The present invention contemplates the use of any physiologically acceptable inhibitor which inhibits poly(ADP-ribose) synthetase activity. The effectiveness of a compound, and its relative potency as a poly(ADP-ribose) synthetase inhibitor, can be tested and routinely determined by measuring inhibition of poly(ADP-ribose) synthetase activity. Poly(ADP-ribose) synthetase activity can be assayed according to the method of Schranfstatter, et al., J. Clin. Inves. 77, 1312 (1986).
Whole brains from 1-day old rats were homogenized in 20% (w/v) buffer A [50 mM Tris-HCl (pH 7.4), 1 mM EDTA, 1 mM DTT, 50 mM NaCl, 0.25M sucrose, 0.2 mM phenylmethylsulfonyl fluoride, 1 μg/ml each of chymostatin, leupeptin, pepstatin and trypsin inhibitor]. The homogenate was centrifuged at 1000 g for 15 min. The pellet was washed with buffer A and centrifuged again. The washed pellet, termed nuclear fraction, was resuspended in buffer A. PARS activity was assayed according to I. U. Schranfstatter, et al., J. Clin. Inves. 77, 1312 (1986). Each 50 μl assay mixture contained 10 μg of the nuclear protein fraction and [adenylate-^32 P]

[5] = test system: primary neuronal cultures from cortex; test: SNP and SNAP (NO releaser) neurotoxicity in cortical neuronal cultures; assay type: cell-based, Sprague-Dawley rats; conditions: for inhibition at 100 µM: Rattus norvegicus, Primary cortical neuron
Procedure: as §1, §2, §3

[6] = Direct interaction of benzamide with SNP/NO (HPLC recovery); assay type: physicochemical
[7] = test system: pancreatic islet cells; conditions: Kallman et al. 1992; cited from earlier work
[8] = Table 1A, 500 μM NMDA + 1 mM compound, 30 min before and during NMDA
[9] = Table 1A, 500 μM NMDA + 100 μM compound, 30 min before and during NMDA

Molecule: CO[C@@H]1[C@@H](OC(N)=O)[C@@H](O)[C@H](Oc2ccc3c(O)c(NC(=O)c4ccc(O)c(CC=C(C)C)c4)c(=O)oc3c2C)OC1(C)C [novobiocin]
protection against NMDA neurotoxicity (in words) [1]: found not to have any activity in preventing neurotoxicity; also recorded: ineffective
% Cell Death (± S.E.M.) [1, 8]: 62.4 ± 8.9%

Molecule: NC(=O)c1ccc(N)cc1 [4-aminobenzamide]
% Cell Death (± S.E.M.) [1, 9]: 55.8 ± 7.6%
fold weaker than benzamide as PARS inhibitor ([2]; relative to benzamide): 50-100 fold

Molecule: nitroarginine
effect on NOS / stimulated nitrite levels ([3]; 100 μM): abolished
nitrite formation [3]: 3.9±1.6 μM nitrite

Molecule: CN[C@H](CC(=O)O)C(=O)O [NMDA, N-methyl- D-aspartate]
% Cell Death (± S.E.M.) ([1]; Table 1A, 500 μM NMDA alone): 57.1 ± 4.7%
% Cell Death (± S.E.M.) ([1]; Table 1B, 500 μM NMDA alone): 74.7 ± 7.8%

effect on PARS activity by itself ([4]; SNP 1 mM, SIN-1 1 mM or untreated DNA, alone): no effects on PARS
Molecule: [NH-]c1c[n+](N2CCOCC2)no1 [SIN-1, 3-morpholinosyndnonimine]

activity at 20 µM ([4]; inhibitor 20 μM, NO-treated DNA, FIG. 1A): < 5%
Molecule: Oc1cccc2c(O)nccc12 [1,5-dihydroxyisoquinoline]
protection against NMDA neurotoxicity (in words) [1]: neuroprotective
protection against NMDA neurotoxicity (in words) ([1]; listed as 1,5-dihydroxy-isoquinoline): found to prevent neurotoxicity
% Cell Death (± S.E.M.) ([1]; Table 1A, 500 μM NMDA + 10 μM compound, 30 min before and during NMDA): 39.0 ± 4.5%

Molecule: NC(=O)c1ccccc1 [benzamide]
protection against NMDA neurotoxicity (in words) [1]: found to prevent neurotoxicity
protection against NMDA neurotoxicity (in words) ([1]; listed as Benzamide): greatest degree of protection
protection against NMDA neurotoxicity ([1]; 50 μM): no significant protection was detected
reduction of NMDA mediated neurotoxicity ([1]; 100 μM, FIG. 2 legend): reduces
greater protection than at 100 μM ([1]; 500 μM versus 100 μM): about 30%
inhibition at 100 µM ([1]; Rattus norvegicus, Primary cortical neuron, read-out: protection against NMDA neurotoxicity): 40 to 50%
% Cell Death (± S.E.M.) ([1]; Table 1A, 500 μM NMDA + 50 μM compound, 30 min before and during NMDA): 60.1 ± 12.1%
% Cell Death (± S.E.M.) [1, 9]: 39.5 ± 5.0%
% Cell Death (± S.E.M.) ([1]; Table 1A, 500 μM NMDA + 500 μM compound, 30 min before and during NMDA): 21.9 ± 4.1%
% Cell Death (± S.E.M.) ([1]; Table 1B, 100 μM compound applied 5 min after 500 μM NMDA): 35.6 ± 8.7%
% Cell Death (± S.E.M.) ([1]; Table 1B, 100 μM compound applied 30 min after 500 μM NMDA): 40.4 ± 5.6%
% Cell Death (± S.E.M.) ([1]; Table 1B, 100 μM compound applied 1 hour after 500 μM NMDA): 43.4%
reduction of SNAP mediated neurotoxicity ([5]; 100 μM, SNAP (300 μM), FIG. 2 legend): reduces
reduction of SNP mediated neurotoxicity ([5]; 100 μM, SNP (500 μM), FIG. 2 legend): reduces
inhibition at 100 µM ([5]; SNAP, read-out: reduction of SNAP neurotoxicity): 45 to 50%
inhibition at 100 µM ([5]; SNP, read-out: reduction of SNP neurotoxicity): 45 to 50%
interaction with NO [6]: did not interact; also recorded: did not interact with NO
recovery of benzamide after incubation with SNP ([6]; benzamide 1 mM, SNP 1 mM, five days, 25° C., HPLC C18, 7200 min): 100%
IC50 ([2]; in vitro, Banasik et al. 1992, read-out: IC50 for inhibiting PARS in vitro): 22 µM

activity at 20 µM [4]: < 5%
Molecule: Nc1ccc2c3c(cccc13)C(=O)NC2=O [4-amino-1,8-naphthalimide]

Molecule: NC(=O)c1cccc(N)c1 [3-aminobenzamide]
protection against NMDA neurotoxicity (in words) [1]: found to have the ability to prevent neurotoxicity; also recorded: somewhat less protection
% Cell Death (± S.E.M.) [1, 9]: 45.9 ± 5.1%
relative potency as PARS inhibitor (in words) ([2]; relative to benzamide): about half as potent
protection of pancreatic islet cells from macrophage cytotoxicity [7]: protects pancreatic islet cells from macrophage cytotoxicity

Molecule: CNc1ccc2oc(C[C@H]3O[C@@]4(CC[C@H]3C)O[C@H]([C@H](C)C(=O)c3ccc[nH]3)[C@H](C)C[C@H]4C)nc2c1C(=O)O [A23187]
nitrite formation [3]: 17.1±2.1 μM nitrite

Molecule: O=C(O)c1ccccc1 [Benzoic acid]
protection against NMDA neurotoxicity (in words) [1]: found not to have any activity
protection against NMDA neurotoxicity (in words) ([1]; listed as benzoic acid): inactive
% Cell Death (± S.E.M.) [1, 8]: 58.9 ± 5.7%
relative potency as PARS inhibitor (in words) ([2]; relative to benzamide): inactive
